According to PMC12470260, “Functional Divergence of Two General Odorant-Binding Proteins to Sex Pheromones and Host Plant Volatiles in Adoxophyes orana (Lepidoptera: Tortricidae)” (Insects, 2025):
“And” between values parts separate entries of the source, which are not always exact repeats. Identical values can stand only once.

Experiments:
AoraGOBP1 = assay: Fluorescence competitive binding assay (1-NPN probe) with rAoraGOBP1; design: species or system Adoxophyes orana; conditions: for Ki: competitive displacement of 1-NPN, 20 mM Tris-HCl pH 7.4, mean ± S.E.M., read-out: Ki (μM) GOBP1; for Binding affinity to AoraGOBP1 (in words): fluorescence competitive binding
Protocol: (§1) The fluorescent competitive binding assays were conducted using an F-2700 spectrophotofluorometer (Hitachi, Tokyo, Japan) to evaluate the binding affinities of AoraGOBP1 and AoraGOBP2 to sex pheromones, and HPVs. […] With the increase of 1 − NPN concentration, the change in fluorescence intensity decreased and eventually stabilized, and the data were recorded. Binding dissociation constant K1−NPN (Kd) of 1 − NPN to rAoraGOBPs were determined. Then, 2 mL protein solution containing 2 μM rAoraGOBPs was titrated with 1 μM of each ligand to a final concentration of 18 µM. The fluorescence intensity was measured and recorded after a 2 min reaction. The Ki for competitive binding of each ligand to rAoraGOBPs using the formula Ki = [IC50]/(1 + [1 − NPN]/K1−NPN), where IC50 is the ligand concentration corresponding to 50% displacement of 1 − NPN. Each assay was replicated three times biologically. The Kd and Ki are presented as mean ± S.E.M.

AoraGOBP2 = assay: Fluorescence competitive binding assay (1-NPN probe) with rAoraGOBP2; design: species or system Adoxophyes orana; conditions: for Ki: competitive displacement of 1-NPN, 20 mM Tris-HCl pH 7.4, mean ± S.E.M., read-out: Ki (μM) GOBP2
Protocol: as §1

[1] = fluorescent probe titration, 2 μM protein, pH 7.4

Compound | Ki (AoraGOBP1; 2 μM protein) | Ki (AoraGOBP2; 2 μM protein) | further results
CC(C)=CCCC(C)=CC=O (mixture of isomers) [Citral] | 11.7 ± 0.44 µM |  | 
c1ccc(Nc2cccc3ccccc23)cc1 [1 − NPN, reference compound] |  |  | Kd (AoraGOBP2; [1]): 1.65 µM; Kd (AoraGOBP1; [1]): 18.4 µM
C=CC(O)CC (stereo not shown) [1-Penten-3-ol] | 10.2 ± 0.14 µM |  | 
CCCCCCCCCCCCO [12:OH] |  | 1.74 ± 0.03 µM | 
CC/C=C\CCOC(=O)CC(C)C [(Z)-3-Hexen-1-yl 3-methylbutanoate] | 6.21 ± 0.18 µM |  | 
CCCCCCCCCC=O [Decanal] | 0.78 ± 0.15 µM |  | 
CCCCOC(=O)c1ccccc1C(=O)OCCCC [Dibutyl phthalate] | 10.27 ± 0.07 µM | 5.33 ± 0.04 µM | 
CCOC(=O)C(C)CC (stereo not shown) [Ethyl 2-methylbutanoate] | 11.78 ± 0.08 µM |  | 
Farnesene |  | 6.96 ± 0.32 µM | 

Continued, in another order:

Ki (AoraGOBP1; 2 μM protein) | Ki (AoraGOBP2; 2 μM protein) | Compound | further results
 | 1.13 ± 0.02 µM | CC(C)=CCC/C(C)=C/CC/C(C)=C/CO [Farnesol] | 
11.9 ± 0.41 µM |  | CC(C)C=O [Isobutyraldehyde] | 
4.41 ± 0.2 µM |  | COC(=O)c1ccccc1O [Methyl salicylate] | 
5.08 ± 0.13 µM |  | CCCCC/C=C\C=C\C(=O)OCC [Pear ester] | 
 | 6.46 ± 0.18 µM | CCCC/C=C\CCCCCCCCOC(C)=O [Z9-14:Ac, (Z)-9-tetradecenyl acetate] | Binding affinity to AoraGOBP2 (in words) (AoraGOBP2; fluorescence competitive binding): moderate binding affinity; Binding affinity to AoraGOBP1 (in words) (AoraGOBP1): did not
 | 1.49 ± 0.01 µM | CCCC/C=C\CCCCCCCCO [Z9-14:OH, (Z)-9-tetradecen-1-ol] | Binding affinity to AoraGOBP1 (in words) (AoraGOBP1): did not
 | 1.21 µM and 1.24 µM | CCCC/C=C\CCCCCCCCO [Z11-14:OH, (Z)-9-tetradecen-1-ol] | Binding affinity to AoraGOBP1 (in words) (AoraGOBP1): did not
